Test results from patent publication US20200129504A1, “COMPOSITIONS OF PLINABULIN AND USE THEREOF” (BeyondSpring Pharmaceuticals, Inc., priority 2017, published 2020).

Key:
PDE3 = target: T1, PDE3 (Homo sapiens, UniProt Q14432); assay: Phosphodiesterase bioassay screening, PDE3 assay; format: biochemical; conditions: Plinabulin concentration 10 μm; n 2; source human platelets; [3H]cAMP+cAMP substrate; 25° C.
T1 construct: The source for the PDE3 and PDE5 assays were human platelets; from tissue; host or cells: human platelets
T1 sequence (Q14432 whole entry): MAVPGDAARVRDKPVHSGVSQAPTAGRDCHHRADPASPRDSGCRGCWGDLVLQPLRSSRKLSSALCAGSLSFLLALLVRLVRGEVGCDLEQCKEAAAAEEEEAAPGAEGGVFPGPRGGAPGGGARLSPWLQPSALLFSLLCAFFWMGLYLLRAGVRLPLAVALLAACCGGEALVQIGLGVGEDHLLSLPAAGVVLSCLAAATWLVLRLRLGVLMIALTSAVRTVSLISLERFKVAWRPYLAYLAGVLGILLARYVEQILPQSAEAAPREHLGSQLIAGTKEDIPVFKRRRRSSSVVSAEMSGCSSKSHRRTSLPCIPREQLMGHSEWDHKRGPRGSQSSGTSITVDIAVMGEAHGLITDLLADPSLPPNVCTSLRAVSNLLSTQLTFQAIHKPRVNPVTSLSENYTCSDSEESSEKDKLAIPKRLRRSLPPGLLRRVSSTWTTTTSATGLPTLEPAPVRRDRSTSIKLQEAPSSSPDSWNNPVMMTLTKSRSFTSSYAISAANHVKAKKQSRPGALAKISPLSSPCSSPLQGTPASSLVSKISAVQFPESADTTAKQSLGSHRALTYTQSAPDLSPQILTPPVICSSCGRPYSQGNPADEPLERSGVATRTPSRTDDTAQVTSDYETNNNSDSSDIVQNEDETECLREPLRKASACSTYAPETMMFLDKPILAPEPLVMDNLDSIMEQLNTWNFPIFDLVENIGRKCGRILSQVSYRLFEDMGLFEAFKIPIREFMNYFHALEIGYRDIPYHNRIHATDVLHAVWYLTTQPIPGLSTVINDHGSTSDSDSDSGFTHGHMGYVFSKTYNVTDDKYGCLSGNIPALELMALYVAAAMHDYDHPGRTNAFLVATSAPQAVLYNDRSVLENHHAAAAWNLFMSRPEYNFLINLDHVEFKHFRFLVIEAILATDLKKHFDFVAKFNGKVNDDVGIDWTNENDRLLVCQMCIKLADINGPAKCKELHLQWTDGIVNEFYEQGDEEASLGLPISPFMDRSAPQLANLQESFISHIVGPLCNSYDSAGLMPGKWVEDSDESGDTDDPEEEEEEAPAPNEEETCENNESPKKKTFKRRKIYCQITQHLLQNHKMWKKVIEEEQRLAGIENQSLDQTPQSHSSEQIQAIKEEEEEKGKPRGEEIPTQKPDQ
Method: (§1) Plinabulin was tested using Phosphodiesterase assays including PDE3, PDE4, and PDE5 assays. The source for the PDE3 and PDE5 assays were human platelets and for PDE4 assay was human U937 cells. The substrate for all three assays was 1.01 µM [.H]cAMP+cAMP. For all three assays, the pre-incubation time was 15 mins, the incubation time was 20 mins, and the pre-incubation and incubation temperature was 25° C. The quantification method involves quantitation of [^3H]Adenosine, and the significant criteria was set for i 50% of max stimulation or inhibition.

PDE4 = assay: Phosphodiesterase bioassay screening, PDE4 assay; format: biochemical, human
Method: as §1

PDE5 = target: T2, PDE5 (Homo sapiens, UniProt O76074); assay: Phosphodiesterase bioassay screening, PDE5 assay; format: biochemical; conditions: Plinabulin concentration 10 μm; n 2; source human platelets; [3H]cAMP+cAMP substrate; 25° C.
T2 construct: The source for the PDE3 and PDE5 assays were human platelets; from tissue; host or cells: human platelets
Method: as §1

[1] = Clinical study of docetaxel plus plinabulin versus docetaxel alone: dexamethasone-related treatment emergent adverse events; format: in vivo, patients
Method: Patients received either docetaxel plus plinabulin (DN) or docetaxel alone (75 mg/m^2) (D) treatment. Two dosing cohorts were investigated: • 1) 30 mg/m^2 dosing cohort: patients were randomized (1:1) to receive either docetaxel plus plinabulin at 30 mg/m^2 (DN 30 mg/m^2 arm) or docetaxel alone (D arm), • 2) 20 mg/m^2 dosing cohort: patients were randomized (2:1) to receive either docetaxel plus plinabulin at 20 mg/m^2 (DN 20 mg/m^2 arm) or docetaxel (D arm) alone.
Patients received therapy on Day 1 and Day 8 in 3-week cycles. Therapy on Day 1 consisted of 75 mg/m^2 docetaxel administered via intravenous infusion (IV) over 1 hour, followed 2 hours later (from the time the docetaxel infusion began) by placebo (Arm D) or 30 mg/m^2 or 20 mg/m^2 plinabulin (Arm DN) administered via intravenous infusion (IV) over 30 minutes. […]
Treatment Phase: Safety assessments (including a complete physical examination) were performed prior to study drug infusion. […] Additionally, the following were evaluated: CBC with differential/platelets and clinical chemistry were performed up to 72 hours prior to Day 1 of each cycle; an additional assessment occurred in Cycle 1/Day 15; Vital signs (heart rate, respiratory rate, blood pressure and temperature) were taken on the days of infusion immediately before and after each study drug infusion and at 30 and 60 minutes following last infusion on the first cycle. […]

Compound: CC(C)(C)c1[nH]cnc1/C=c1\[nH]c(=O)/c(=C/c2ccccc2)[nH]c1=O [Plinabulin, (3Z,6Z)-3-Benzylidene-6-{[5-(2-methyl-2-propanyl)-1H-imidazol-4-yl]methylene}-2,5-piperazinedione]
- % of inhibition (PDE3): 7%
- % of inhibition (PDE4; Plinabulin concentration 10 μm, n 2, source human U937 cells, [3H]cAMP+cAMP substrate, 25° C.): 77%
- inhibition activity against PDE4 compared with PDE3 and PDE5 (PDE4; from Table 1, 10 μm): better inhibition activity against PDE4
- % of inhibition (PDE5): 25%
- steroid related adverse events versus patients receiving no plinabulin ([1]; 30 mg/m^2 of plinabulin, p=0.026): statistically more significant
- steroid (dexamethasone)-related adverse events, effect of plinabulin dose (FIG. 1) ([1]; plinabulin 20 and 30 mg/m^2 added to docetaxel): dose-dependent increase
